Assay results from the supplement of paper PMC10307832.

How the values were obtained:
Assay in all cases: relative viability (nuclei count vs DMSO), 5 days (fraction); higher = more cells survive
ChaGo-K-1 = system: ChaGo-K-1
In short: (§1)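 Relative viability divides the nuclei count in treated wells by that in vehicle wells. Lung cancer cell lines were seeded in 1536-well plates, dosed by pin tool the next day, and fixed and stained after 5 days in one step with final 0.05% Triton X-100, 1% formaldehyde and 1 ug/ml Hoechst. Dosing was a single drug or a fixed anchor-drug dose plus five library-drug doses (not always all listed) in √10 steps, and values are medians of duplicate plates imaged at 4×.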

EMC-BAC-2 = system: EMC-BAC-2
In short: as §1

EPLC-272H = system: EPLC-272H
In short: as §1

H3255 = system: H3255
In short: as §1

HCC-44 = system: HCC-44
In short: as §1

HCC-827 = system: HCC-827
In short: as §1

LCLC-103H = system: LCLC-103H
In short: as §1

LCLC-97TM1 = system: LCLC-97TM1
In short: as §1

NCI-H1355 = system: NCI-H1355
In short: as §1

NCI-H1395 = system: NCI-H1395
In short: as §1

NCI-H1563 = system: NCI-H1563
In short: as §1

NCI-H1651 = system: NCI-H1651
In short: as §1

NCI-H1793 = system: NCI-H1793
In short: as §1

NCI-H1944 = system: NCI-H1944
In short: as §1

NCI-H2023 = system: NCI-H2023
In short: as §1

NCI-H2085 = system: NCI-H2085
In short: as §1

NCI-H2087 = system: NCI-H2087
In short: as §1

NCI-H2405 = system: NCI-H2405
In short: as §1

NCI-H322M = system: NCI-H322M
In short: as §1

NCI-H520 = system: NCI-H520
In short: as §1

NCI-H650 = system: NCI-H650
In short: as §1

SK-MES-1 = system: SK-MES-1
In short: as §1

UMC-11 = system: UMC-11
In short: as §1

Compound: NC(=O)Nc1cc(-c2cccc(F)c2)sc1C(=O)N[C@H]1CCCNC1 [AZD7762] + COc1cccc2cc(-c3nc([C@H]4CC[C@H](C(=O)O)CC4)n4ncnc(N)c34)[nH]c12 [OSI-027] (partner 0.5 µM)
- relative viability (ChaGo-K-1; first compound 0.01 µM): 0.622
- relative viability (ChaGo-K-1; first compound 0.03162 µM): 0.631
- relative viability (ChaGo-K-1; first compound 0.1 µM): 0.56
- relative viability (ChaGo-K-1; first compound 0.3162 µM): 0.643
- relative viability (ChaGo-K-1; first compound 1 µM): 0.554
- relative viability (EMC-BAC-2; first compound 0.01 µM): 0.349
- relative viability (EMC-BAC-2; first compound 0.03162 µM): 0.435
- relative viability (EMC-BAC-2; first compound 0.1 µM): 0.465
- relative viability (EMC-BAC-2; first compound 0.3162 µM): 0.345
- relative viability (EMC-BAC-2; first compound 1 µM): 0.405
- relative viability (EPLC-272H; first compound 0.01 µM): 0.299
- relative viability (EPLC-272H; first compound 0.03162 µM): 0.332
- relative viability (EPLC-272H; first compound 0.1 µM): 0.271
- relative viability (EPLC-272H; first compound 0.3162 µM): 0.27
- relative viability (EPLC-272H; first compound 1 µM): 0.115
- relative viability (H3255; first compound 0.01 µM): 0.572
- relative viability (H3255; first compound 0.03162 µM): 0.506
- relative viability (H3255; first compound 0.1 µM): 0.534
- relative viability (H3255; first compound 0.3162 µM): 0.629
- relative viability (H3255; first compound 1 µM): 0.607
- relative viability (HCC-44; first compound 0.01 µM): 0.718
- relative viability (HCC-44; first compound 0.03162 µM): 0.579
- relative viability (HCC-44; first compound 0.1 µM): 0.712
- relative viability (HCC-44; first compound 0.3162 µM): 0.65
- relative viability (HCC-44; first compound 1 µM): 0.491
- relative viability (HCC-827; first compound 0.01 µM): 0.787
- relative viability (HCC-827; first compound 0.03162 µM): 0.802
- relative viability (HCC-827; first compound 0.1 µM): 0.863
- relative viability (HCC-827; first compound 0.3162 µM): 0.875
- relative viability (HCC-827; first compound 1 µM): 0.537
- relative viability (LCLC-103H; first compound 0.01 µM): 0.451
- relative viability (LCLC-103H; first compound 0.03162 µM): 0.471
- relative viability (LCLC-103H; first compound 0.1 µM): 0.427
- relative viability (LCLC-103H; first compound 0.3162 µM): 0.392
- relative viability (LCLC-103H; first compound 1 µM): 0.341
- relative viability (LCLC-97TM1; first compound 0.01 µM): 0.582
- relative viability (LCLC-97TM1; first compound 0.03162 µM): 0.577
- relative viability (LCLC-97TM1; first compound 0.1 µM): 0.511
- relative viability (LCLC-97TM1; first compound 0.3162 µM): 0.617
- relative viability (LCLC-97TM1; first compound 1 µM): 0.44
- relative viability (NCI-H1355; first compound 0.01 µM): 0.389
- relative viability (NCI-H1355; first compound 0.03162 µM): 0.489
- relative viability (NCI-H1355; first compound 0.1 µM): 0.515
- relative viability (NCI-H1355; first compound 0.3162 µM): 0.443
- relative viability (NCI-H1355; first compound 1 µM): 0.418
- relative viability (NCI-H1395; first compound 0.01 µM): 0.727
- relative viability (NCI-H1395; first compound 0.03162 µM): 0.74
- relative viability (NCI-H1395; first compound 0.1 µM): 0.708
- relative viability (NCI-H1395; first compound 0.3162 µM): 0.458
- relative viability (NCI-H1395; first compound 1 µM): 0.363
- relative viability (NCI-H1563; first compound 0.01 µM): 0.792
- relative viability (NCI-H1563; first compound 0.03162 µM): 0.781
- relative viability (NCI-H1563; first compound 0.1 µM): 0.748
- relative viability (NCI-H1563; first compound 0.3162 µM): 0.804
- relative viability (NCI-H1563; first compound 1 µM): 0.771
- relative viability (NCI-H1651; first compound 0.01 µM): 0.76
- relative viability (NCI-H1651; first compound 0.03162 µM): 0.637
- relative viability (NCI-H1651; first compound 0.1 µM): 0.653
- relative viability (NCI-H1651; first compound 0.3162 µM): 0.637
- relative viability (NCI-H1651; first compound 1 µM): 0.193
- relative viability (NCI-H1793; first compound 0.01 µM): 0.265
- relative viability (NCI-H1793; first compound 0.03162 µM): 0.268
- relative viability (NCI-H1793; first compound 0.1 µM): 0.308
- relative viability (NCI-H1793; first compound 0.3162 µM): 0.299
- relative viability (NCI-H1793; first compound 1 µM): 0.25
- relative viability (NCI-H1944; first compound 0.01 µM): 0.396
- relative viability (NCI-H1944; first compound 0.03162 µM): 0.467
- relative viability (NCI-H1944; first compound 0.1 µM): 0.53
- relative viability (NCI-H1944; first compound 0.3162 µM): 0.525
- relative viability (NCI-H1944; first compound 1 µM): 0.299
- relative viability (NCI-H2023; first compound 0.01 µM): 0.405
- relative viability (NCI-H2023; first compound 0.03162 µM): 0.331
- relative viability (NCI-H2023; first compound 0.1 µM): 0.216
- relative viability (NCI-H2023; first compound 0.3162 µM): 0.116
- relative viability (NCI-H2023; first compound 1 µM): 0.105
- relative viability (NCI-H2085; first compound 0.01 µM): 0.603
- relative viability (NCI-H2085; first compound 0.03162 µM): 0.871
- relative viability (NCI-H2085; first compound 0.1 µM): 0.836
- relative viability (NCI-H2085; first compound 0.3162 µM): 0.765
- relative viability (NCI-H2085; first compound 1 µM): 0.554
- relative viability (NCI-H2087; first compound 0.01 µM): 0.474
- relative viability (NCI-H2087; first compound 0.03162 µM): 0.653
- relative viability (NCI-H2087; first compound 0.1 µM): 0.681
- relative viability (NCI-H2087; first compound 0.3162 µM): 0.883
- relative viability (NCI-H2087; first compound 1 µM): 0.779
- relative viability (NCI-H2405; first compound 0.01 µM): 0.608
- relative viability (NCI-H2405; first compound 0.03162 µM): 0.676
- relative viability (NCI-H2405; first compound 0.1 µM): 0.623
- relative viability (NCI-H2405; first compound 0.3162 µM): 0.664
- relative viability (NCI-H2405; first compound 1 µM): 0.455
- relative viability (NCI-H322M; first compound 0.01 µM): 0.555
- relative viability (NCI-H322M; first compound 0.03162 µM): 0.581
- relative viability (NCI-H322M; first compound 0.1 µM): 0.562
- relative viability (NCI-H322M; first compound 0.3162 µM): 0.254
- relative viability (NCI-H322M; first compound 1 µM): 0.255
- relative viability (NCI-H520; first compound 0.01 µM): 0.294
- relative viability (NCI-H520; first compound 0.03162 µM): 0.246
- relative viability (NCI-H520; first compound 0.1 µM): 0.246
- relative viability (NCI-H520; first compound 0.3162 µM): 0.243
- relative viability (NCI-H520; first compound 1 µM): 0.16
- relative viability (NCI-H650; first compound 0.01 µM): 0.549
- relative viability (NCI-H650; first compound 0.03162 µM): 0.542
- relative viability (NCI-H650; first compound 0.1 µM): 0.537
- relative viability (NCI-H650; first compound 0.3162 µM): 0.509
- relative viability (NCI-H650; first compound 1 µM): 0.614
- relative viability (SK-MES-1; first compound 0.01 µM): 0.672
- relative viability (SK-MES-1; first compound 0.03162 µM): 0.571
- relative viability (SK-MES-1; first compound 0.1 µM): 0.52
- relative viability (SK-MES-1; first compound 0.3162 µM): 0.173
- relative viability (SK-MES-1; first compound 1 µM): 0.17
- relative viability (UMC-11; first compound 0.01 µM): 0.484
- relative viability (UMC-11; first compound 0.03162 µM): 0.442
- relative viability (UMC-11; first compound 0.1 µM): 0.43
- relative viability (UMC-11; first compound 0.3162 µM): 0.33
- relative viability (UMC-11; first compound 1 µM): 0.241
